A word on the IC50: it is the concentration at which inhibition is half-maximal. As a reminder, the viability, T/C is the ratio of treated to control.

Several values for one entry are separate records, joined by “and”; a condition that tells them apart may be missing. Equal entries are not always repeated.

This test concerns 435261-313-R-J1-PDC tumor spheroid viability. The test can be described thus: Anticancer human tumor 435261-313-R-J1-PDC patient-derived colon adenocarcinoma cell line growth inhibition [PI3K]. Particulars: spheroids with HUVEC and MSC; for viability, T/C: stronger effect = lower value. In short, it runs like this:
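Tumor cells grown as multi-cell spheroids with HUVEC endothelial cells and MSC fibroblast-like stroma were treated with targeted agents combined with inavolisib, alpelisib, duvelisib or copanlisib. Doses fell in half-log steps from near clinical Cmax, else from 10 microM. Viability was measured.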

The mark [1] stands for this setting: curve of first compound, second compound 0.0316 µM.
Where [2] appears, read: curve of first compound, second compound 0.1 µM.
Where [3] appears, read: curve of first compound, second compound 0.316 µM.
Setting [4] is: curve of first compound, second compound 1 µM.
Setting [5] is: curve of first compound, second compound 3.16 µM.
Setting [6] is: curve of first compound, second compound 10 µM.
[7] abbreviates: second compound 0.0316 µM, first compound 0.0316 µM.
Setting [8] is: second compound 0.0316 µM, first compound 0.1 µM.
[9] abbreviates: second compound 0.0316 µM, first compound 0.316 µM.
Setting [10] is: second compound 0.0316 µM, first compound 1 µM.
Setting [11] is: second compound 0.0316 µM, first compound 3.16 µM.
[12] abbreviates: second compound 0.0316 µM, first compound 10 µM.
Setting [13] is: second compound 0.1 µM, first compound 0.0316 µM.
[14] abbreviates: second compound 0.1 µM, first compound 0.1 µM.
The mark [15] stands for this setting: second compound 0.1 µM, first compound 0.316 µM.
Setting [16] is: second compound 0.1 µM, first compound 1 µM.
[17] abbreviates: second compound 0.1 µM, first compound 3.16 µM.
[18] abbreviates: second compound 0.1 µM, first compound 10 µM.
[19] abbreviates: second compound 0.316 µM, first compound 0.0316 µM.
The mark [20] stands for this setting: second compound 0.316 µM, first compound 0.1 µM.
Setting [21] is: second compound 0.316 µM, first compound 0.316 µM.
Where [22] appears, read: second compound 0.316 µM, first compound 1 µM.
Setting [23] is: second compound 0.316 µM, first compound 3.16 µM.
[24] abbreviates: second compound 0.316 µM, first compound 10 µM.
Where [25] appears, read: second compound 1 µM, first compound 0.0316 µM.
Setting [26] is: second compound 1 µM, first compound 0.1 µM.
The mark [27] stands for this setting: second compound 1 µM, first compound 0.316 µM.
The mark [28] stands for this setting: second compound 1 µM, first compound 1 µM.
The mark [29] stands for this setting: second compound 1 µM, first compound 3.16 µM.
The mark [30] stands for this setting: second compound 1 µM, first compound 10 µM.
Where [31] appears, read: second compound 3.16 µM, first compound 0.0316 µM.
Setting [32] is: second compound 3.16 µM, first compound 0.1 µM.
[33] abbreviates: second compound 3.16 µM, first compound 0.316 µM.
The mark [34] stands for this setting: second compound 3.16 µM, first compound 1 µM.
Setting [35] is: second compound 3.16 µM, first compound 3.16 µM.
[36] abbreviates: second compound 3.16 µM, first compound 10 µM.
[37] abbreviates: second compound 10 µM, first compound 0.0316 µM.
Setting [38] is: second compound 10 µM, first compound 0.1 µM.
The mark [39] stands for this setting: second compound 10 µM, first compound 0.316 µM.
Setting [40] is: second compound 10 µM, first compound 1 µM.
The mark [41] stands for this setting: second compound 10 µM, first compound 3.16 µM.
Where [42] appears, read: second compound 10 µM, first compound 10 µM.
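Note: spheroids exposed to compounds for 7 days.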

For `CNC(=O)c1ccc(N2C(=S)N(c3ccc(C#N)c(C(F)(F)F)c3)C(=O)C2(C)C)cc1F` + CC(Nc1ncnc2nc[nH]c12)c1cc2cccc(Cl)c2c(=O)n1-c1ccccc1, the concentration for half-maximal inhibition (IC50) is above 10 µM under setting [1]; above 10 µM under setting [2]; above 10 µM under setting [3]; above 10 µM under setting [4]; above 10 µM under setting [5]; above 10 µM under setting [6]. Also, the viability, T/C was 106% under setting [7]; 70.5% under setting [8]; 72.3% under setting [9]; 82.8% under setting [10]; 99.8% under setting [11]; 74.8% under setting [12]. Also, the viability, T/C was 101% under setting [13]; 90.6% under setting [14]; 111% under setting [15]; 121% under setting [16]; 79.7% under setting [17]; 65.7% under setting [18]. Besides, the viability, T/C was 78.5% under setting [19]; 90.4% under setting [20]; 103% under setting [21]; 79.8% under setting [22]; 102% under setting [23]; 81.8% under setting [24]. The viability, T/C is 95.1% under setting [25]; 97.1% under setting [26]; 75.9% under setting [27]; 86.5% under setting [28]; 73.1% under setting [29]; 66.4% under setting [30]. For the same compound, the viability, T/C reads like this: under setting [31], 101%; under setting [32], 91.6%; under setting [33], 69.5%; under setting [34], 64.5%; under setting [35], 59.3%; under setting [36], 67.3%. The viability, T/C reads like this: under setting [37], 55%; under setting [38], 44.7%; under setting [39], 64%; under setting [40], 68.6%; under setting [41], 58.5%; under setting [42], 39.8%.
Take `CC(C)NCC(C(=O)N1CCN(c2ncnc3c2C(C)CC3O)CC1)c1ccc(Cl)cc1` (stereo not given) + CC(Nc1ncnc2nc[nH]c12)c1cc2cccc(Cl)c2c(=O)n1-c1ccccc1: the IC50 by setting is: under setting [1], 4.13 µM; under setting [2], 6.39 µM; under setting [3], 3.72 µM; under setting [4], 4.82 µM; under setting [5], 4.51 µM; under setting [6], 0.775 µM. In addition, the viability, T/C reads like this: under setting [7], 98.3%; under setting [8], 102%; under setting [9], 101%; under setting [10], 76.7%; under setting [11], 60%; under setting [12], 24.4%. The viability, T/C under setting [13] is 104%; the viability, T/C under setting [14] was 88.9%; the viability, T/C under setting [15] is 91.2%; the viability, T/C under setting [16] was 102%; the viability, T/C under setting [17] is 71.5%; the viability, T/C under setting [18] is 36.3%. Also, the viability, T/C runs as follows: under setting [19], 130%; under setting [20], 88.7%; under setting [21], 77.6%; under setting [22], 67.7%; under setting [23], 72.5%; under setting [24], 26%. The viability, T/C was 98.1% under setting [25]; 93.9% under setting [26]; 68.1% under setting [27]; 80% under setting [28]; 65.8% under setting [29]; 30.6% under setting [30]. Besides, the viability, T/C was 83.1% under setting [31]; 84.8% under setting [32]; 61.8% under setting [33]; 74.2% under setting [34]; 65.9% under setting [35]; 18.4% under setting [36]. For the same compound, the viability, T/C by setting is: under setting [37], 72.1%; under setting [38], 69.6%; under setting [39], 38.8%; under setting [40], 59.3%; under setting [41], 39.6%; under setting [42], 14.9%.
Take `CC(Nc1ncnc2nc[nH]c12)c1cc2cccc(Cl)c2c(=O)n1-c1ccccc1` (stereo not given): the viability, T/C by setting is: (compound 1 µM) 77.1% [middle of 7 runs]; (compound 3.16 µM) 70.9% [middle of 7 runs].
In the case of `Cn1ncnc1[C@H]1c2n[nH]c(=O)c3cc(F)cc(c23)N[C@@H]1c1ccc(F)cc1`, the viability, T/C (compound 0.00316 µM) was 93.3% and 79.8% (2×) and 89.1%; the viability, T/C (compound 0.1 µM) is 62.6% [middle of 4 runs]. The 50% inhibitory concentration (IC50) (curve of compound) was above 0.1 µM.
As for `CC(Cn1ccc(-c2ccc(C#N)c(Cl)c2)n1)NC(=O)c1cc(C(C)O)[nH]n1` (stereo not given) + CC(Nc1ncnc2nc[nH]c12)c1cc2cccc(Cl)c2c(=O)n1-c1ccccc1, the concentration for half-maximal inhibition (IC50) was above 10 µM under setting [1]; above 10 µM under setting [2]; above 10 µM under setting [3]; above 10 µM under setting [4]; above 10 µM under setting [5]; above 10 µM under setting [6]. For the same compound, the viability, T/C by setting is: under setting [7], 101%; under setting [8], 96.2%; under setting [9], 107%; under setting [10], 75.8%; under setting [11], 101%; under setting [12], 100%. Besides, the viability, T/C runs as follows: under setting [13], 105%; under setting [14], 95.9%; under setting [15], 90.9%; under setting [16], 103%; under setting [17], 115%; under setting [18], 76.1%. The viability, T/C under setting [19] was 82.7%; the viability, T/C under setting [20] is 90.4%; the viability, T/C under setting [21] was 90.5%; the viability, T/C under setting [22] is 80.5%; the viability, T/C under setting [23] is 103%; the viability, T/C under setting [24] is 81.6%. In addition, the viability, T/C reads like this: under setting [25], 81.1%; under setting [26], 99.1%; under setting [27], 70.9%; under setting [28], 85.9%; under setting [29], 73.5%; under setting [30], 76.6%. Besides, the viability, T/C under setting [31] is 77.8%; the viability, T/C under setting [32] was 58.4%; the viability, T/C under setting [33] is 77.2%; the viability, T/C under setting [34] was 85.5%; the viability, T/C under setting [35] is 65.1%; the viability, T/C under setting [36] was 62.1%. Besides, the viability, T/C is, setting by setting: under setting [37], 58.5%; under setting [38], 41.7%; under setting [39], 48.5%; under setting [40], 74.7%; under setting [41], 72.4%; under setting [42], 42%.
With `CC(Nc1ccc2c(c1)OCCn1cc(N3C(=O)OCC3C(F)F)nc1-2)C(N)=O` (stereo not given), the viability, T/C runs as follows: (compound 0.1 µM) 31.2% [middle of 7 runs]; (compound 0.316 µM) 23.1% [middle of 7 runs]; (compound 1 µM) 20.4% [middle of 7 runs].
In the case of `CC1(C)CCC(CN2CCN(c3ccc(C(=O)NS(=O)(=O)c4ccc(NCC5CCOCC5)c([N+](=O)[O-])c4)c(Oc4cnc5[nH]ccc5c4)c3)CC2)=C(c2ccc(Cl)cc2)C1`, where the note is “compound 3.16 µM”, the viability, T/C is 107% [middle of 4 runs].
